Measured values from patent US11667645B2, “Granzyme B directed imaging and therapy” (CytoSite Biopharma Inc., priority 2018, dated 2023).

Target: Granzyme B (human lymphocytes) (Homo sapiens (Human), UniProt P10144)
Assay: human Granzyme B biochemical assay
Conditions: Granzyme B (human lymphocytes) 5 nM, substrate Ac-IETD-AFC 200 μM, Cpd incubation with enzyme 30 mins, 22° C., read time 60 mins; read-out: IC50
Source text: The compounds of Formula I-VIII described above can be tested using the human Granzyme B biochemical assay provided below.
Materials: • 1. Granzyme B (human lymphocytes) Enzyme: Enzo Lifesciences, Cat #ALX-200-602-0010 • 2. Substrate (Ac-IETD-AFC): Enzo Lifesciences, Cat #ALX-260-110-M010 • 3. Standard inhibitor (Compound 20-Isomer3): Synthesized internally in TCG • 4. Dimethyl sulfoxide (DMSO): Sigma-Aldrich, Cat #41639 • 5. HEPES: Gibco, Cat #15630-080 • 6. Calcium chloride: Sigma-Aldrich, Cat #C-5080 • 7. Distilled water: Gibco, Cat #15230-162 • 8. Bovine serum albumin (BSA): Sigma-Aldrich, Cat #A3059 • 9. Black, clear bottom PDL plate (384 wells): Greiner bio-one, Cat #781946 • 10. Polypropylene plate (384 wells): Corning, Cat #3657 Assay Buffer Composition:
Compound Preparation: • 1. DMSO is added to the respective compound vial to make 10 mM Compound stock solution, which is stored at −20° C. • 2. 10 mM Compound stock solution is thawed and 1 mM DMSO stock solution is prepared by adding 45 μl of DMSO to 5 μl of 10 mM compound stock solution. • 3. 1 mM DMSO stock solution is serially diluted (3.16 fold) by adding 10 μl of 1 mM DMSO stock to 21.6 μl of DMSO and mixed well. 10 μl of the resulting solution is then added to 21.6 μl of DMSO and mixed well. This process is continued to create 11 dilution points for the assay standard inhibitor and 8 dilution points for test compounds in 384 well polypropylene plate. • 4. 2 μl of each dilution are dispensed in assay ready plate. • 5. Each well is then diluted 25 fold by adding 48 μl of assay buffer to 2 μl of compound in assay ready plate to make Compound working stock. Enzyme Preparation: • 1. Supplied Granzyme B (human lymphocytes) enzyme is reconstituted to 1 mg/ml (about 31.25 μM) and 1 μl aliquots are kept in −80° C. • 2. 1 μl aliquot is diluted to 625 nM by adding 49 μl of assay buffer containing 0.1% BSA and gently mixed. • 3. 10 nM enzyme working stock is prepared by adding assay buffer containing 0.1% BSA. Substrate Preparation: • 1. Supplied substrate (Ac-IETD-AFC) is reconstituted by adding DMSO to make 10 mM stock, aliquoted and stored in −80° C. • 2. 4 mM substrate mid stock is prepared by adding DMSO. • 3. Substrate working stock i.e. 800 μM is prepared by adding assay buffer. Assay Protocol: • 1. 10 μl of serially diluted Compound working stock (start dose 40 μM) is added from assay ready plate to assay plate according to the plate map. • 2. Positive control (40 μM of standard inhibitor) and negative control (4% DMSO buffer) are added to the respective wells. • 3. 20 μl of Enzyme working stock is added to assay plate and gently mixed. • 4. The plate is incubated at 22° C. for 30 mins and spun at 130 g for 1 minute. • 5. After incubation, 10 μl of Substrate working stock is added to respective wells and mixed (Assay plate is maintained in dark after substrate addition). • 6. The plate is incubated at 22° C. for 60 mins and spun at 130 g for 1 minute. • 7. Fluorescence read (RFU) (Ex: 400 nm/Em: 505 nm) is taken after 60 mins in EnVision Multimode plate reader. Final Assay Concentration:
Data Analysis: • 1. The RFU read is analyzed to calculate percent inhibition by normalizing with positive and negative controls taken as 100% and 0% effect respectively in Microsoft excel. • 2. Graph is generated by putting the analyzed data in GraphPad prism 5.0 software to get IC50 value for each compound.

Chain of Granzyme B (human lymphocytes) (P10144 21-247): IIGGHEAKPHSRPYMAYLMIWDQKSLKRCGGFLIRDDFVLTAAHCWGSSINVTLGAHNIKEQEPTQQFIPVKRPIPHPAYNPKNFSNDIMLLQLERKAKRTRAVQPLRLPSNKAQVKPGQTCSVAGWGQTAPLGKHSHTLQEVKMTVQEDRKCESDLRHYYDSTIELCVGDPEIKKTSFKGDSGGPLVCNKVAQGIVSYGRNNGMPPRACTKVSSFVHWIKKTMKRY

Row | IC50 | Structure (SMILES)
1 | 301 to 1000 nM | CCC(CC)[C@H](NC(=O)c1ccccc1)C(=O)N[C@H]1CCc2cccc3c2N(C1=O)[C@H](C(=O)NCc1c[nH]nn1)C3 [Compound C073, (2S,5S)-5-((S)-2-Benzoylamino-3-ethyl-pentanoylamino)-4-oxo-1,2,4,5,6,7-hexahydro-azepino[3,2,1-hi]indole-2-carboxylic acid (1H-[1,2,3]triazol-4-ylmethyl)-amide]
2 | 1 to 300 nM | CC[C@H](C)[C@H](NC(=O)COCCF)C(=O)N[C@H]1CN(C)c2cccc3c2N(C1=O)[C@H](C(=O)NCc1c[nH]nn1)C3 [Compound C144, (3S,6S)-3-{(2S,3S)-2-[2-(2-Fluoro-ethoxy)-acetylamino]-3-methyl-pentanoylamino}-1-methyl-4-oxo-1,2,3,4,6,7-hexahydro-[1,4]diazepino[3,2,1-hi]indole-6-carboxylic acid (1H-[1,2,3]triazol-4-ylmethyl)-amide]
3 | 1 to 300 nM | CC(=O)N[C@H](C(=O)N[C@H]1COc2cccc3c2N(C1=O)[C@H](C(=O)NCc1c[nH]nn1)C3)C(C)C [Compound C101, (1S,8S)-8-((S)-2-Acetylamino-3-methyl-butyrylamino)-9-oxo-1,2,8,9-tetrahydro-7H-6-oxa-9a-aza-benzo[cd]azulene-1-carboxylic acid (1H-[1,2,3]triazol-4-ylmethyl)-amide]
4 | 1 to 300 nM | CC[C@H](C)[C@H](NC(=O)Cc1cc2ccccc2s1)C(=O)N[C@H]1CCc2cccc3c2N(C1=O)[C@H](C(=O)NCc1c[nH]nn1)C3 [Compound C158, (2S,5S)-5-[(2S,3S)-2-(2-Benzo[b]thiophen-2-yl-acetylamino)-3-methyl-pentanoylamino]-4-oxo-1,2,4,5,6,7-hexahydro-azepino[3,2,1-hi]indole-2-carboxylic acid (1H-[1,2,3]triazol-4-ylmethyl)-amide]
5 | > 5000 nM | CC[C@H](C)[C@H](NC(=O)COCCF)C(=O)N[C@H]1CCc2cccc3c2N(C1=O)[C@H](C(=O)NCc1ccc(C)cc1)C3 [Compound C129, (2S,5S)-5-{(2S,3S)-2-[2-(2-Fluoro-ethoxy)-acetylamino]-3-methyl-pentanoylamino}-4-oxo-1,2,4,5,6,7-hexahydro-azepino[3,2,1-hi]indole-2-carboxylic acid 4-methyl-benzylamide]
6 | 1 to 300 nM | CC[C@H](C)[C@H](NC(=O)Cc1cc2ccccc2o1)C(=O)N[C@H]1CCc2cccc3c2N(C1=O)[C@H](C(=O)NCc1c[nH]nn1)C3 [Compound C159, (2S,5S)-5-[(2S,3S)-2-(2-Benzofuran-2-yl-acetylamino)-3-methyl-pentanoylamino]-4-oxo-1,2,4,5,6,7-hexahydro-azepino[3,2,1-hi]indole-2-carboxylic acid (1H-[1,2,3]triazol-4-ylmethyl)-amide]
7 | > 5000 nM | COC(=O)CC[C@H](NC(=O)[C@@H]1Cc2cccc3c2N1C(=O)[C@@H](NC(=O)[C@@H](NC(C)=O)C(C)C)CC3)C(=O)OC [Compound C095, (S)-2-{[(2S,5S)-5-((S)-2-Acetylamino-3-methyl-butyrylamino)-4-oxo-1,2,4,5,6,7-hexahydro-azepino[3,2,1-hi]indole-2-carbonyl]-amino}-pentanedioic acid dimethyl ester]
8 | 1000 to 5000 nM | CC[C@H](NC(=O)c1ccccc1)C(=O)N[C@H]1CCc2cccc3c2N(C1=O)[C@H](C(=O)NCc1c[nH]nn1)C3 [Compound C045, (2S,5S)-5-((S)-2-Benzoylamino-butyrylamino)-4-oxo-1,2,4,5,6,7-hexahydro-azepino[3,2,1-hi]indole-2-carboxylic acid (1H-[1,2,3]triazol-4ylmethyl)-amide]
9 | 1 to 300 nM | Cc1ccccc1C(=O)N[C@H](C(=O)N[C@H]1CCc2cccc3c2N(C1=O)[C@H](C(=O)NCc1c[nH]nn1)C3)C(C)C [Compound C050, (2S,5S)-5-[(S)-3-Methyl-2-(2-methyl-benzoylamino)-butyrylamino]-4-oxo-1,2,4,5,6,7-hexahydro-azepino[3,2,1-hi]indole-2-carboxylic acid (1H-[1,2,3]triazol-4-ylmethyl)-amide]
